Non-standard residues stand in square brackets, D forms with d. Residues, ends and D or L forms follow the SMILES beside them. *: point of attachment. Sta = CC(C)C[C@H](N)[C@@H](O)CC(=O)O; Cbz = O=C(OCc1ccccc1)*; Boc = CC(C)(C)OC(=O)*; Lac = C[C@H](O)C(=O)O; βAla = NCCC(=O)O; Sar = CNCC(=O)O

The results in this text go back to patent US4595677A, “Substituted tetrapeptides” (Ciba-Geigy Corporation, priority 1982, dated 1986).

A short description of the data set: solubility in water of the isolated powder. In kind it is physicochemical. The conditions noted are these: lyophilised product.

With `CC(C)C[C@H](NC(=O)[C@H](Cc1c[nH]cn1)NC(=O)[C@H](Cc1ccccc1)NC(=O)[C@@H]1CCCN1C(=O)[C@H](CCCNC(=N)N)NC(=O)[C@@H](N)CCCNC(=N)N)[C@@H](O)CC(=O)N(C)CC(=O)N[C@@H](Cc1c[nH]cn1)C(=O)N[C@@H](CCCCN)C(=O)O` [Example 19, H-Arg-Arg-Pro-Phe-His-Sta-Sar-His-Lys-OH] (H-RRPFH[Sta][Sar]HK-OH), the “water solubility of the amorphous powder” value is recorded as “readily water-soluble”.

As for `CC(C)C[C@H](NC(=O)[C@H](Cc1c[nH]cn1)NC(=O)[C@H](Cc1ccccc1)NC(=O)[C@@H]1CCCN1C(=O)[C@H](CCCNC(=N)N)NC(=O)[C@@H](N)CCCNC(=N)N)[C@@H](O)CC(=O)O[C@@H](C)C(=O)N[C@@H](Cc1c[nH]cn1)C(N)=O` [Example 23, H-Arg-Arg-Pro-Phe-His-Sta-Lac-His-NH2] (H-RRPFH[Sta][Lac]H-NH2), the “water solubility of the amorphous powder” value is “water-soluble”.

As to “Z-Arg-Arg-Pro-Phe-His-Sta-Lac-His-NH2 [Example 22]”, the “water solubility of the amorphous powder” value was “readily water-soluble”.

For `CC(C)C[C@H](NC(=O)[C@H](Cc1c[nH]cn1)NC(=O)[C@H](Cc1ccccc1)NC(=O)[C@@H]1CCCN1C(=O)[C@H](Cc1c[nH]cn1)NC(=O)[C@@H]1CCCN1)[C@@H](O)CC(=O)N[C@H](C(=O)N[C@@H](Cc1ccc(O)cc1)C(=O)N[C@@H](CCCCN)C(=O)O)C(C)C` [Example 1, H-Pro-His-Pro-Phe-His-Sta-Val-Tyr-Lys-OH×AcOH] (H-PHPFH[Sta]VYK-OH), the “water solubility of the amorphous powder” value is on record as “readily water-soluble”.

As for Cbz-RRPFH[Sta][βAla]H-NH2 [Example 20], the “water solubility of the amorphous powder” value is given as “water-soluble”.

Consider “Cbz-RRPFH[Sta][Sar]HK(Boc)-OMe [Example 16]”, for which the “water solubility of the amorphous powder” value is “readily water-soluble”.
